Experimental data taken from patent publication US11286463B2, “Reprogramming of aged adult stem cells” (priority 2012, dated 2022).

Test system: 84 genes reported to be linked to cellular aging, epigenetics and senescence
Experiment: qPCR gene array of AASC in transwell culture with YASC
Type: cell-based, human
Details: 5 μM manumycin
Procedure: In an embodiment, the methods of the present disclosure further comprise exposure of AASCs to the Intracellular Matrix (ICM) of the YASCs through placement of a transwell culture insert containing YASC into the tissue culture dish chamber. Mobilized PBMCs (1×10^7) from the second subjects are added to the outer well of 12-well transwell cultures containing a […] BD Falcon™ insert. Any membrane insert able to provide a cell-free filtrate to cultures of AASCs may be employed. In parallel, mobilized PBMCs (1×10^7) from the first subjects are added to the inner well of the 12-well plate. Cells may then be cultivated in a suitable media (e.g., RPMI-1640 (Gibco) supplemented with 10% fetal calf serum (FCS) and β-mercaptoethanol (β-ME)) for a time period of the type disclosed herein (e.g., 8-weeks), under standard culture conditions (e.g., 50% media changed every 4 days).
For experiments investigating the contribution of exosomes as the membrane-permeable factors responsible for AASC reprogramming (i.e reprogramming agents), the exosomal inhibitor manumycin A (Sigma-Aldrich) can be added to the culture media at a final concentration of 5 μM at days 0 and 14 of the cultivation period.
AASC reprogramming was carried out using the one-step process depicted in the middle workflow of FIGS. 1 and 2. […]

CCCC[C@@H](C)/C=C(C)/C=C(\C)C(=O)NC1=C[C@@](O)(/C=C/C=C/C=C/C(=O)NC2=C(O)CCC2=O)[C@@H]2O[C@@H]2C1=O [manumycin, -[(1S,5S,6R)-5-hydroxy-5-[(1E,3E,5E)-7-[(2-hydroxy-5-oxo-1-cyclopenten-1-yl)amino]-7-oxo-1,3,5-heptatrien-1-yl]-2-oxo-7-oxabicyclo[4.1.0]hept-3-en-3-yl]-2E,4E,6R-trimethyl,2,4-decadienamide]
gene expression levels of AASC co-cultured with YASC compared to absence of manumycin: displayed changes in gene expression levels
